Results as given in patent publication US8629116B2, “Method for inducing a TRIF-bias” (priority 2008, dated 2014).
“Also recorded” adds a separate entry of the source.

Legend:
[1] = target: T1, human TLR4, MD-2, CD14 (Homo sapiens, UniProt O00206+Q9Y6Y9); assay: NF-κB reporter activity in HEK293 cells transfected with human TLR4/MD-2/CD14; format: cell-based; conditions: HEK293 huTLR4/huMD-2/huCD14, NFκB reporter plasmid
T1 construct: host or cells: HEK293-hTLR4/hMD2/hCD14
Experimental: HEK293-hTLR4/hMD2/hCD14 cells are seeded in 12-well plates (4×10^5 cells/well) and are cultured until 40-60% confluent (2-3 days). The cells are transfected for 24 hours with 100 ng of NF-κB reporter construct expressing secreted human embryonic alkaline phosphatase under the control of an engineered ELAM promoter with five NF-κB sites (pNiFty2-SEA-InvivoGen; San Diego, Calif.) and a transfection control plasmid constitutively expressing a thymidine kinase promoter driven luciferase (Promega). […] After transfection, cells are stimulated for 14 h with TLR4 agonists, and the cleared supernatant is assayed for SEAP activity (SEAP Reporter Assay Kit-InvivoGen) to quantify NF-κB activation and luciferase activity (Promega) to normalize for transfection efficiency following supplied protocols.

[2] = tested on: human primary monocytes; assay: Western blot of human primary monocytes (IRAK-1, IRF-3); format: cell-based; conditions: Western blot time course
Experimental: (§1) For Western blot and phospho-Western blot protein analysis, cells are lysed with Cell Lysis Buffer (Cell Signaling Technology, Danvers, Mass.) with Protease Inhibitor Cocktail (Sigma, St. Louis Mo.). Western Blot on PVDF membranes (Millipore) is performed using standard methods. Bands are detected with ECL Advance Western Blot kit (GE Healthcare, Piscataway, N.J.). Secondary Anti-Rabbit HRP antibody is obtainable from KPL, (Gaithersburg, Md.). Anti-βactin, anti-IRF-3, anti-phospho-IRF-3 (Ser396) and anti-IRAK1 antibodies are obtained from Cell Signaling Technology (Danvers, Mass.).
Degradation of the Serine/Threonine Kinase, IRAK-1, occurs downstream of MyD88-dependent TLR4 signaling (Hatao et al, 260-64; Neumann et al. 1089-94), while TRIF-dependent TLR4 signaling results in IRF-3 activation (Yamamoto et al. 6668-72; Yamamoto et al. 640-43). Here, human primary monocytes are stimulated with either CRX-547 or CRX-527 for the indicated times, and cellular lysates are analyzed by Western Blot for the levels of the MyD88 pathway-activated kinase, IRAK-1, and the TRIF pathway-activated transcription factor, IRF-3 (phospho-IRF-3 and total IRF-3). The levels of β-actin is used as the loading control.

[3] = tested on: RAW264.7 (macrophage) cells; assay: TNFα and IP-10 production in RAW264.7 cells; format: cell-based, mouse
Source text: To better compare and confirm the similarity of potency between the L and D isomers in murine cells, RAW264.7 (macrophage) cells are stimulated over a wider dose range with CRX-527, CRX-547, compounds 1a and 1b and the supernatants assayed for MyD88 (TNFα) and TRIF-dependent (IP-10) production.
Since MyD88-dependent signaling after TLR4 stimulation should be earlier than TRIF dependent signaling, and because both MyD88 and TRIF can induce downstream TNFα production due to activation of the NFκB pathway, an earlier timepoint is tested for cytokine production after stimulation with the L and D isomers.

[4] = tested on: MM6 cells; assay: Western blot of MM6 cells (IκBα, IRAK4, p38, IRF3); format: cell-based, human; conditions: for IRAK-4 / total IκBα / TRIF-mediated signaling proteins (phospho-p38, total p38, IRF3, phospho-IRF3): 10 ng/ml; for TRIF-mediated signaling proteins (phospho-p38, total p38, IRF3, phospho-IRF3): difference between the two AGPs
Experimental: as §1
The role of MAPK signaling molecules in MyD88 versus TRIF signaling after TLR4 ligation is complicated because p38 is implicated in both pathways, however a role for p38 phosphorylation as an indicator of the TRIF pathway is indicated in the literature. […] To determine whether the phosphorylation state of p38 is different after stimulation with CRX-527 versus CRX-547, western blot analysis is performed on lysates from MM6 cells.
MAPK pathways and downstream transcription factors are differentially regulated by TLR agonists. Degradation of IRAK4 and IκBα are indicative of MyD88 after TLR4 signaling (Hatao et al. 260-64; Neumann et al. 1089-94), while TRIF-mediated TLR4 signaling results in IRF3 activation (Yamamoto et al. 6668-72; Yamamoto et al. 640-43). MM6 cells are stimulated with either CRX-547 or CRX-527 (10 ng/ml) for the indicated time. Cellular lysates are collected and Western Blot analysis of the MyD88 pathway proteins, Phospho-IκBα, total IκBα, IRAK4, and TRIF pathway proteins, phospho-p38, total IRF3 and phospho IRF3 is performed using βactin as the loading control.

[5] = tested on: RAW264.7 cells; assay: Western blot of signaling proteins in RAW264.7 cells; format: cell-based, mouse; conditions: 10 ng/ml, PMA pre-activated
Experimental: as §1
To determine whether the phosphorylation (activation) status of key protein signaling molecules in the TRIF versus MyD88 in RAW264.7 cells, cells are pre-activated with 10^−7M PMA) then stimulated with 10 ng/ml of the AGPs. Cellular lysates are prepared at 0, 15 m, 30 m, 45 m, 60 m, 120 m, 240 m, Similar to results in MM6 cells, IκBα degradation is faster after stimulation with CRX-527 compared to CRX-547 (FIG. 29). […] The increased reponsiveness of these cello could be due to the pre-activation with PMA, known to increase the maturation state of monocytic cells. CRX-547 induces expression of Phospho-IκBα and Phospho-IRF3. IRF3 is induced through TRIF mediated signaling. The amount of total IRF3 protein is also higher in the cells treated with CRX-547.

[6] = Induction of serum cytokines/chemokines in mice; format: in vivo, mouse; conditions: C57BL/6 mice, 2 or 6 hours post injection
Experimental: Female BALB/c or C57B1/6 mice are obtained from Charles River Laboratories, USA, and are 7 to 9 weeks of age when the experiments are initiated. Mice are injected intraperitoneally with 200 uL of agonist in vehicle (0.2% glycerol) or vehicle alone. Serum samples are drawn at 2 or 6 hours post-injection and are tested for induction of cytokines/chemokines by multiplex sandwich ELISA (Invitrogen) on the Luminex platform. All animals are used in accordance with guidelines established by the Public Health Service and the Institutional Animal Care and Use Committee at GlaxoSmithKline Biologicals, Hamilton, Mont.
To ensure that this response is not specific to BALB/c mice, a similar test of serum cytokine induction in C57BL/6 mice is carried out. (FIG. 16). The kinetics (induction at 2 or 6 hours post injection) and magnitude of cytokine induction are similar for CRX-527 and CRX-547 for both MyD88-dependent (TNFα, IL-10) and TRIP-dependent (RANTES, IP-10, MIG) cytokines/chemokines, although the relative induction by CRX-547 is slightly less for select cytokines than that seen in BALB/c (not shown). […]

[7] = target: T2, human TLR4 and murine MD-2 (UniProt O00206+Q9JHF9); assay: NFκB promoter activity in HEK293 cells with chimeric human TLR4 and murine MD-2; format: cell-based, human/mouse; conditions: HEK293 huTLR4/muMD-2
T2 construct: expressed in transfected cells; host or cells: HEK293

[8] = tested on: human PBMC-derived monocytes; assay: Cytokine/chemokine gene expression (qPCR time course) in human PBMC-derived monocytes; format: cell-based; conditions: for time of highest IFNβ gene induction: qPCR time course
Source text: Initial experiments include time course analysis of MyD88- and TRIF-dependent cytokine gene induction using qPCR.

[9] = tested on: THP-1 cells; assay: Cytokine induction with dominant negative MyD88 or TRIF constructs in THP-1 macrophages; format: cell-based, human; conditions: for induction of TRIF-dependent cytokines when TRIF is knocked down: dominant negative TRIF construct
Experimental: THP-1 cells are seeded in 12-well plates (5×10^5 cells/well) and incubated in 0.5 mL RPMI 1640 (ATCC) with 100 U/mL penicillin/100 ug/mL streptomycin (Sigma) with 20 ng/mL phorbol mystyric acid (PMA) (InvivoGen) for differentiation into macrophages. After differentiation of the THP-1, the media is changed to THP-1 media with 5 ng/mL PMA and the cells are transiently transfected with 0.5 μg/well of the pDeNy-hMyD88/LacZ, pDeNy-TRIF/LacZ, or pUNO-mcs (control)/LacZ plasmids and Fugene 6 transfection reagent for 48 h. Media is exchanged for fresh media and the cells are then stimulated with the indicated concentrations of TLR4 agonists for 14 hours. Harvested supernatants are assayed for cytokine levels by multiplex sandwich ELISA (R&D Systems) with the luminex platform. Control wells are assayed for transfection efficiency using the Invivogen LacZ Quantitation Kit.

[10] = dominant negative MyD88 construct

T1 sequence (O00206 24-839): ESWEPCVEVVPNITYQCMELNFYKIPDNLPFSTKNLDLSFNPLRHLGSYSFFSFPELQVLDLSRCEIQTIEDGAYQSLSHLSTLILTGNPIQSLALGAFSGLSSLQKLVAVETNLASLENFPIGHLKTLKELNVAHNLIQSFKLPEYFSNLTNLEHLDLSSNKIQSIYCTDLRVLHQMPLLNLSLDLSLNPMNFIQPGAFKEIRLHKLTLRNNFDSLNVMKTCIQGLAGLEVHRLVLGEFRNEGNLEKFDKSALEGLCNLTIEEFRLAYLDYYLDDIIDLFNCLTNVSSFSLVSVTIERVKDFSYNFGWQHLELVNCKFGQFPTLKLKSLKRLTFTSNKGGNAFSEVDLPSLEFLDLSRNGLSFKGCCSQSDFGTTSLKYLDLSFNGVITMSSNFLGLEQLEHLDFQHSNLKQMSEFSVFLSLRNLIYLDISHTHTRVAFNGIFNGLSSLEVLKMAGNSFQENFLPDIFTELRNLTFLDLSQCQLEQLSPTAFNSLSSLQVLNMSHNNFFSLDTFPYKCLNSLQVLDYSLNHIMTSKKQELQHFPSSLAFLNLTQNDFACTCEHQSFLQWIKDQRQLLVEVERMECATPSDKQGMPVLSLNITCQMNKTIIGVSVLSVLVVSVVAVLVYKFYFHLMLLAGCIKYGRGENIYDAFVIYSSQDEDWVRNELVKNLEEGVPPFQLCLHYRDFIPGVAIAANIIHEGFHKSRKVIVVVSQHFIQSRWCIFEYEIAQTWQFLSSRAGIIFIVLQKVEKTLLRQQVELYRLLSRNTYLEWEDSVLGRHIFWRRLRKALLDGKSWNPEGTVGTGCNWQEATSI
T1 sequence (Q9Y6Y9 19-160): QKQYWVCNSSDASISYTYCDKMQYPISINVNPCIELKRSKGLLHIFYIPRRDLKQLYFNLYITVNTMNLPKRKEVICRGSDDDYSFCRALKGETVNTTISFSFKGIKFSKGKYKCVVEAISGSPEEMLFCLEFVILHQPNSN
T2 sequence (O00206 24-839): as the sequence (O00206 24-839) above
T2 sequence (Q9JHF9 19-160): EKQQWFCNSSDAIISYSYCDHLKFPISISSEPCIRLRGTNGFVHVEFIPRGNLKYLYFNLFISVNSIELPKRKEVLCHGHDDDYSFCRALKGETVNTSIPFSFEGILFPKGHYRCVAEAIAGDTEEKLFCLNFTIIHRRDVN

Row | SMILES | NF-κB promoter/reporter activation [1] | IRAK-1 level (MyD88 pathway) [2] | potency for IP-10 production ([3]; wider dose range) | potency for TNFα production ([3]; wider dose range) | IRAK-4 [4] | total IκBα [4] | TRIF-mediated signaling proteins (phospho-p38, total p38, IRF3, phospho-IRF3) [4] | kinetics and magnitude of serum cytokine induction (TNFα, IL-10, RANTES, IP-10, MIG) [6] | induction of promoter activity, CRX-527 versus CRX-547 [7] | time of highest IFNβ gene induction [8] | induction of MyD88-dependent cytokine (TNFα) when MyD88 signaling is inhibited [9, 10] | induction of TRIF-dependent cytokines when TRIF is knocked down [9] | other results
1 | CCCCCCCCCCCC(CC(=O)NC(COC1OC(CO)C(OP(=O)(O)O)C(OC(=O)CC(CCCCCCCCCCC)OC(=O)CCCCCCCCC)C1NC(=O)CC(CCCCCCCCCCC)OC(=O)CCCCCCCCC)C(=O)O)OC(=O)CCCCCCCCC.CCN(CC)CC (stereo not shown) [CRX-527] | significantly higher activation | rapid decrease; also recorded: greater degradation | more potent | more potent | rapid decrease; also recorded: greater degradation | rapid decrease | little or difference | similar | large relative difference | 1 h | significantly reduced | reduced to a similar extent | potency for IP-10 production ([3]; four hours of stimulation): slightly more potent; potency for TNFα production ([3]; four hours of stimulation): slightly more potent; phosphorylation state of p38 ([4]; compared to CRX-547): slight increase; IκBα degradation ([5]; CRX-527 compared to CRX-547): faster; MyD88-dependent cytokine/chemokine gene expression [8]: greater; TRIF-dependent cytokine/chemokine gene expression [8]: greater; induction of TRIF-dependent cytokine RANTES when MyD88 signaling is inhibited [9, 10]: only slightly reduced
2 | CCCCCCCCCCCC(CC(=O)NC(COC1OC(CO)C(OP(=O)(O)O)C(OC(=O)CC(CCCCCCCCCCC)OC(=O)CCCCCCCCC)C1NC(=O)CC(CCCCCCCCCCC)OC(=O)CCCCCCCCC)C(=O)O)OC(=O)CCCCCCCCC.CCN(CC)CC (stereo not shown) [CRX-547] | less NFκB reporter activity | delayed and reduced degradation | less potent | less potent | delayed and less degradation | delayed and less degradation | little or difference | similar | large relative difference | 1 h | unaffected | reduced to a similar extent | IRF3 phosphorylation ([5]; performed once): higher degree; IκBα phosphorylation ([5]; performed once): higher degree; amount of total IRF3 protein ([5]; performed once): higher
